This is an account of results in patent publication US8575145B2, “Triazolopyridine compounds as PIM kinase inhibitors” (Array BioPharma Inc., priority 2008, dated 2013).

The test system of test [1] is C57BL/6J mice, MOG-induced EAE. Put plainly: MOG(35-55)-induced Experimental Autoimmune Encephalomyelitis. It counts as in vivo, mouse. The note with it: 200 mg/kg oral gavage twice daily, days 7 through 27; vehicle and untreated 3.0. As to the method: To further determine the effect of compounds of Formula I on an autoimmune disease associated with T cells and cytokines, a MOG-induced experimental autoimmune encephalomyelitis (EAE) experiment was performed. MOG-induced EAE is an animal model of human multiple sclerosis (Brain (2006), 129, 1953-1971).
On Day 0, C57BL/6J mice (Jackson Laboratories #000664, 6-8 weeks of age) were injected subcutaneously with 100 μL of complete Freund's adjuvant (CFA) prepared as a 1:1 emulsion of (a) incomplete Freund's adjuvant (Difco, catalog #263910) containing 8 mg/mL m. tuberculosis H37RA (Difco, catalog #231141) and (b) phosphate buffered saline (PBS) containing 1 mg/mL MOG(35-55) peptide (California Peptide Research Inc). On the day 0 and 2, mice were injected intravenously with 200 ng of pertussis toxin (List Biological Laboratories, catalog #181). On day 7, the mice were randomized into treatment groups which received vehicle (distilled water) or the compound of Example 26 (200 mg/kg) administered by oral gavage twice daily from days 7 through 27.
The mice were scored daily on days 7 through 37 using the following clinical scoring system:
1.5—unsteady gait, mild hind limb ataxia
2.0—partial hind limb paralysis (hind limbs carrying weight)
2.5—partial hind limb paralysis (hind limbs not carrying weight)
3.0—full hind limb paralysis
3.5—full hind limb paralysis and partial front limb paralysis

Test [2] has as its system C57BL/6J mice immunized with hen egg lysozyme. Put plainly: B Cell in vivo Functional Assay (HEL-specific antibody isotypes). On the set-up: species or system mouse. The note with it: 200 mg/kg oral once a day, Day 21, vs vehicle. The procedure:
To determine the effect of a compound of Formula I on B cell responses, the following experiment was conducted. On Day O, C57BL/6J mice (Jackson Laboratories #000664, 6-8 weeks of age) were immunized at the base of the tail with 20 μg of hen egg lysozyme (HEL; Sigma #L7773) with complete Freund's adjuvant (CFA; Sigma #F5881). Mice were re-immunized on day 7 with 20 μg HEL in alum (Pierce catalog #77161). Starting on Day 0 and continuing through Day 28, mice were dosed once a day by oral administration with vehicle (water) or the compound of Example 26 (200 mg/kg). Serum was collected on days 0, 7, 14, 21, and 28 and analyzed for HEL-specific total IgG, IgG1, IgG2a, IgG2b, and IgG3 antibody production by capture ELISA (antibodies purchased from Invitrogen, catalog #M30007, #M32107, #M32307, #M32507, #M32607). ELISA plates were quantitated using Molecular Devices Versamax reader at […]. The group mean titer of each antibody analyte was converted to percent of vehicle control (=100%).

Test [3] relates to C57BL/6 recipient mice, adoptive transfer EAE model. Nature of the test: Adoptive Transfer Experimental Autoimmune Encephalomyelitis. Format: in vivo, mouse. The note with it: 200 mg/kg oral gavage twice daily for 26 days. The procedure: Having observed that compounds of Formula I inhibit T cell activation in vitro and in vivo, the effect of a compound of Formula I on an autoimmune disease induced by T cells was determined using an adoptive transfer EAE model, an animal model of human multiple sclerosis (Brain (2006), 129, 1953-1971). This model relies on the injection of T cells from animals with EAE into disease-free host animals. This injection of cells is known to those skilled in the art as adoptive transfer. By injecting the animals with activated, encephalogenic T cells, this model is focused on the pathogenic stage of EAE autoimmune disease. On Day-14, C57BL/6 mice (Taconic Farms; 10 weeks old) were immunized with a disease-causing protein, MOG(35-55) peptide in complete Freund's adjuvant (Hooke Laboratories, catalog #EK-0113). On Day -3, spleens were harvested, single cell suspensions were prepared and then 5,000,000 cells/mL were stimulated with 20 μg/mL MOG(33-55) peptide (Open Biosystems), 30 ng/mL IL-12 (R&D Systems catalog #419-ML-010), 10 μg/mL anti-IFNγ antibody (BD Biosciences catalog #554408) at 37° C., 5% CO2. On Day 0, 1,500,000 of these cells were injected intravenously into the tail veins of C57BL/6 recipient mice. […] The recipient mice were scored daily days 0 through 26 using the following clinical scoring system: […]

A further test deals with MRL/MpJ-Fas<lpr> mice. Nature of the test: MRL/lpr Lupus Model. The note with it: 200 mg/kg twice daily. Format: in vivo, mouse. From the text:
MRL/lpr is considered to be an animal model of systemic lupus erythematosus (SLE), an autoimmune disease (Cohen and Maldonado 2003, Current Protocols in Immunology Chapter 15, Unit 15.20). MRL/lpr mice have a defect in the apoptosis of activated lymphocytes and over time develop a spontaneous and severe lymphoproliferative disorder characterized by enlarged lymphoid organs, auto-antibody production and kidney disease resulting in proteinuria. […] To determine the effect of compounds of Formula I in this model of SLE, the following experiment was conducted.
MRL/MpJ-Fasand age-matched MRL/MpJ control mice (Jackson Laboratories, catalog #000485 and #000486, respectively) were treated once daily with vehicle (1% CMC/0.5% Tween 80) or twice daily with the compound of Example 26 (200 mg/kg) for 10 weeks. Body weights, lymphadenopathy and urine protein levels were monitored weekly. Urine protein levels were determined with Bayer Albustix dipsticks (Bayer catalog #2191) and scored according to the following scale:
Serum levels of anti-ds-DNA antibody were measured by ELISA (Alpha Diagnostic, catalog #5120) on Day 28 and upon study termination. ELISA plates were quantitated using a Molecular Devices Versamax plate reader at […] and titers calculated relative using to a standard curve using a 4-parameter curve fit with Softmax Pro software.

Where a name gives a salt, the structure may show the parent alone.

Turning to `F[C@@H]1CNCCC1Oc1cccc2ccc(-c3nnc4ccccn34)nc12` (stereo in doubt) [Example 26, 2-([1,2,4]triazolo[4,3-a]pyridin-3-yl)-8-((cis)-3-fluoropiperidin-4-yloxy)quinoline dihydrochloride], the “median maximal clinical score” value in test [1] came to 1.5. Also, in test [2], the “HEL-specific IgG2a titer” value is reported as “decreased”, the “HEL-specific IgG2b titer” value is on record as “decreased” and the “HEL-specific IgG3 titer” value is “decreased”. Further, in test [3], the “disease onset (first of 2 consecutive days with clinical score >= 1)” value is “significant delay in disease onset”. In addition, the “median day of onset” value in test [3] (untreated and vehicle groups day 6) was determined as 11 days. Further, the proteinuria over time entry in the test with MRL/MpJ-Fas<lpr> mice (10 weeks, relative to vehicle control) is on record as “prevents the development of proteinuria”. Moreover, the “decrease in serum anti-dsDNA relative to vehicle control” value with MRL/MpJ-Fas<lpr> mice (28 days) is reported as 74%. Besides, in the test with MRL/MpJ-Fas<lpr> mice (study termination (79 days of dosing)), the “decrease in serum anti-dsDNA antibodies relative to vehicle control” value was found to be 99%.
